Assay results as given in the supplement of paper PMC10307832.

Legend:
Experiment in all cases: relative viability (nuclei count vs DMSO), 5 days (fraction); higher = more cells survive
[1] = compound: COc1cc2nccc(Oc3ccc(NC(=O)C4(C(=O)Nc5ccc(F)cc5)CC4)cc3)c2cc1OC [Cabozantinib] + CC(=O)Nc1cccc(-n2c(=O)n(C3CC3)c(=O)c3c(Nc4ccc(I)cc4F)n(C)c(=O)c(C)c32)c1 [Trametinib] (partner 0.02 µM)
Summary of the method: (§1)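 Five library-drug doses in √10 steps were combined with a fixed anchor-drug dose, or a single drug was given alone, by pin tool to lung cancer cell lines in 1536-well plates the day after seeding. Nuclei were stained and counted after 5 days. Relative viability is the nuclei count in treated wells over that in vehicle wells, taken as the median of duplicate plates.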

Kobe2602 + Pictilisib = compound: C1=CC(=CC=C1NC(=S)NNC2=C(C=C(C=C2[N+](=O)[O-])C(F)(F)F)[N+](=O)[O-])F [Kobe2602] + CS(=O)(=O)N1CCN(Cc2cc3nc(-c4cccc5[nH]ncc45)nc(N4CCOCC4)c3s2)CC1 [Pictilisib] (partner 1 µM)
Summary of the method: as §1

Zosuquidar + Tozasertib = compound: O[C@@H](COc1cccc2ncccc12)CN1CCN([C@@H]2c3ccccc3[C@@H]3[C@H](c4ccccc42)C3(F)F)CC1 [Zosuquidar] + Cc1cc(Nc2cc(N3CCN(C)CC3)nc(Sc3ccc(NC(=O)C4CC4)cc3)n2)n[nH]1 [Tozasertib] (partner 0.1 µM)
Summary of the method: as §1

[2] = compound: COc1cc2nccc(Oc3ccc(NC(=O)C4(C(=O)Nc5ccc(F)cc5)CC4)cc3)c2cc1OC [Cabozantinib] + CS(=O)(=O)N1CCN(Cc2cc3nc(-c4cccc5[nH]ncc45)nc(N4CCOCC4)c3s2)CC1 [Pictilisib] (partner 1 µM)
Summary of the method: as §1

Cell Line: UMC-11
- relative viability ([1]; first compound 0.02 µM): 0.666
- relative viability ([1]; first compound 0.06325 µM): 0.808
- relative viability ([1]; first compound 0.2 µM): 0.782
- relative viability ([1]; first compound 0.6325 µM): 0.548
- relative viability ([1]; first compound 2 µM): 0.69
- relative viability (Kobe2602 + Pictilisib; first compound 0.2 µM): 0.865
- relative viability (Kobe2602 + Pictilisib; first compound 0.6325 µM): 0.863
- relative viability (Kobe2602 + Pictilisib; first compound 2 µM): 0.847
- relative viability (Kobe2602 + Pictilisib; first compound 6.325 µM): 0.778
- relative viability (Kobe2602 + Pictilisib; first compound 20 µM): 0.868
- relative viability (Zosuquidar + Tozasertib; first compound 0.01 µM): 0.207
- relative viability (Zosuquidar + Tozasertib; first compound 0.03162 µM): 0.194
- relative viability (Zosuquidar + Tozasertib; first compound 0.1 µM): 0.201
- relative viability (Zosuquidar + Tozasertib; first compound 0.3162 µM): 0.208
- relative viability (Zosuquidar + Tozasertib; first compound 1 µM): 0.194
- relative viability ([2]; first compound 0.02 µM): 0.804
- relative viability ([2]; first compound 0.06325 µM): 0.96
- relative viability ([2]; first compound 0.2 µM): 0.8
- relative viability ([2]; first compound 0.6325 µM): 0.782
- relative viability ([2]; first compound 2 µM): 0.76
